We go through 2 molecules from PMC4076210, “Discovery of Novel AKT Inhibitors with Enhanced Anti-Tumor Effects in Combination with the MEK Inhibitor” (PLoS ONE, 2014).

Read-outs that look alike come from different tables or passages of the source. Bounds are passed on as bounds.

One series addresses T1, JNK3(h) (Homo sapiens, UniProt P53779).
T1 construct: purchased Millipore KinaseProfiler
The series is described as follows: Kinase panel. Type of series: biochemical.

The target in the next series is T2, ZAP-70(h) (Homo sapiens, UniProt P43403).
T2 construct: purchased Millipore KinaseProfiler
T2 sequence (P43403 1-619): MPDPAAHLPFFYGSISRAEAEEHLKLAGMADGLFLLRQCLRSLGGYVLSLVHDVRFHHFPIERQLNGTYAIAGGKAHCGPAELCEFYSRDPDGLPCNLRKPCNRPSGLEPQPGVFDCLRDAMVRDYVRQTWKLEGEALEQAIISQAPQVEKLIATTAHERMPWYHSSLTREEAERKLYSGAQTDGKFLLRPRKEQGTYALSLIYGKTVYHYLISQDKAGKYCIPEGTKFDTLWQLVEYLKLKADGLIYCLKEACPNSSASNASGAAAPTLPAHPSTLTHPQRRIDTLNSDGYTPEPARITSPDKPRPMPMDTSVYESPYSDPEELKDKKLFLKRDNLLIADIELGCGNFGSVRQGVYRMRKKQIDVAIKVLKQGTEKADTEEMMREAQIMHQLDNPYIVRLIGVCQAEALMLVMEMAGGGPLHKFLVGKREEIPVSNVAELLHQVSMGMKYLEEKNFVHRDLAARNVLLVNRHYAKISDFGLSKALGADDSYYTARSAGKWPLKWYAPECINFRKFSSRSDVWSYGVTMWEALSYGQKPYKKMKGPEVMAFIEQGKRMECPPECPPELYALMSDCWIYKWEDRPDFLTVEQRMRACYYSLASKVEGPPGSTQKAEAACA
The series is described as follows: Kinase panel. The class given is biochemical.

In series [1] the test system is AKT substrate phosphorylation in LNCaP. The series is described as follows: Western analysis of AKT signaling. The class given is cell-based, human. As to conditions: 1 h. The method, then:
(§1) Cells treated with DMSO or compounds for different duration were lysed using RIPA buffer (Teknova) containing protease and phosphatase inhibitors (Sigma Aldrich). Equal amounts of protein were resolved in 4–12% SDS-PAGE gels (Invitrogen), transferred onto 0.45 µm PVDF membrane (Invitrogen), and incubated with primary antibodies (1∶1000 dilution) overnight. Antibodies for AKT, phospho-AKT (Ser473 and Thr308), phospho-FOXO (Thr24/32), phospho-MEK1/2 (Ser217/221) were purchased from Cell Signaling Technologies. Phospho-GSK3β (Ser9) antibody was from R&D Systems. PRAS40 and phospho-PRAS40 (Thr246) antibodies were obtained from Millipore. Phospho-ERK1/2 (Tyr204), ERK1/2, and phospho-Caspase 9 (Ser196) antibodies were purchased from Santa Cruz Biotechnologies. Tubulin antibodies were purchased from Sigma Aldrich. Following incubation with primary antibody, blots were washed and incubated with IRDye-680 goat-anti-mouse or IRDye-800CW goat-anti-rabbit antibodies (1; 10,000 dilution; LI-COR) for 1 h. Following thorough washing, blots were analyzed using an infrared imaging system (LI-COR).

In series [2] the test system is AKT substrate phosphorylation in BT474. The experiment in a line: Western analysis of AKT signaling. The class given is cell-based, human. The settings on record: BT474, 1 h. The protocol:
as §1

A short description of series [3]: Plasma insulin after single oral dose. Type of series: in vivo, mouse. The method, then:
Blood glucose levels were determined from tail vein puncture in mice using a handheld glucometer. Plasma Insulin levels were using the Rat Ultrasensitive Insulin ELISA kit (Crystal Chem Inc).

The next series has as its target T3, FAK(h) (Homo sapiens, UniProt Q05397).
T3 construct: purchased Millipore KinaseProfiler
The experiment in a line: Kinase panel. Type of series: biochemical.

The target in the next series is T4, ALK4(h) (Homo sapiens, UniProt P36896).
T4 construct: purchased Millipore KinaseProfiler
T4 sequence (P36896 24-505): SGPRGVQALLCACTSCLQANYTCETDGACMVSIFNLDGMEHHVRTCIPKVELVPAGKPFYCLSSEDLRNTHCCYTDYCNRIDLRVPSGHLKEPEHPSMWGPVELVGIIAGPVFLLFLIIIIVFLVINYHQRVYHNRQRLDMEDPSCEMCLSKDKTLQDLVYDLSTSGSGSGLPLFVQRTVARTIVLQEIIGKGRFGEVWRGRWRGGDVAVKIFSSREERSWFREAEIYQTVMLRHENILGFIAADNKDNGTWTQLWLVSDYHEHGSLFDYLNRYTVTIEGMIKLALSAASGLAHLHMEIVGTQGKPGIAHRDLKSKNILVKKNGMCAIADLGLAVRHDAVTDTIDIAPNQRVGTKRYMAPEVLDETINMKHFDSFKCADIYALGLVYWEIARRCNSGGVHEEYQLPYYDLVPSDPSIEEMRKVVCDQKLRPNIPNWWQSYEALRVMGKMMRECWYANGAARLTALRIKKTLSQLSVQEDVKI
The series is described as follows: Kinase panel. The class given is biochemical.

T3 sequence (Q05397 whole entry): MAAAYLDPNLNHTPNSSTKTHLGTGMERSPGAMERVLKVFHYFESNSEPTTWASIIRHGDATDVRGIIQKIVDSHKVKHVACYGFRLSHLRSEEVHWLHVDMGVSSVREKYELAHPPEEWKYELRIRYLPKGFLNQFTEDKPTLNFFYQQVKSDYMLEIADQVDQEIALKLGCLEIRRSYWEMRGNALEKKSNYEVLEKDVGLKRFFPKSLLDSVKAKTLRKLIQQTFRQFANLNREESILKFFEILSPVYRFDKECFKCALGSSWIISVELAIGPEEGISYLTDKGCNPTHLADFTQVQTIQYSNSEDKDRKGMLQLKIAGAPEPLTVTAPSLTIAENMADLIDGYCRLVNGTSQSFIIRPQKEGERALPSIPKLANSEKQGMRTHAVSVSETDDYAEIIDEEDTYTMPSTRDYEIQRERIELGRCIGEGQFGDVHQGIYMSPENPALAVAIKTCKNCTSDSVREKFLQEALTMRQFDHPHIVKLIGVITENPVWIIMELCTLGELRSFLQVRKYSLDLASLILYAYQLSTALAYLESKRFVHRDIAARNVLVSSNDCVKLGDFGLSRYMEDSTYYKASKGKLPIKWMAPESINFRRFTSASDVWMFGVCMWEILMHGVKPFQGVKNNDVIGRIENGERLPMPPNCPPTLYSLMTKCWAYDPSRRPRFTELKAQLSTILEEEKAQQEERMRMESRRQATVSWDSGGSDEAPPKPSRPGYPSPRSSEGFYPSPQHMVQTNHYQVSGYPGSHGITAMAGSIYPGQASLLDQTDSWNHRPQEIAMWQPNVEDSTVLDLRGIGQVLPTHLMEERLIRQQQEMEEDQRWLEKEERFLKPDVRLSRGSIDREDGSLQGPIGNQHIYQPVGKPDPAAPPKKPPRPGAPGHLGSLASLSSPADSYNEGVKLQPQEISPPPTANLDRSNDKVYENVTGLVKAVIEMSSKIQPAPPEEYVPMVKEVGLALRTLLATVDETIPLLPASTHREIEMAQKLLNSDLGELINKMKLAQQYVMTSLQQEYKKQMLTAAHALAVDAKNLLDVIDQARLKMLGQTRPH
T1 sequence (P53779 whole entry): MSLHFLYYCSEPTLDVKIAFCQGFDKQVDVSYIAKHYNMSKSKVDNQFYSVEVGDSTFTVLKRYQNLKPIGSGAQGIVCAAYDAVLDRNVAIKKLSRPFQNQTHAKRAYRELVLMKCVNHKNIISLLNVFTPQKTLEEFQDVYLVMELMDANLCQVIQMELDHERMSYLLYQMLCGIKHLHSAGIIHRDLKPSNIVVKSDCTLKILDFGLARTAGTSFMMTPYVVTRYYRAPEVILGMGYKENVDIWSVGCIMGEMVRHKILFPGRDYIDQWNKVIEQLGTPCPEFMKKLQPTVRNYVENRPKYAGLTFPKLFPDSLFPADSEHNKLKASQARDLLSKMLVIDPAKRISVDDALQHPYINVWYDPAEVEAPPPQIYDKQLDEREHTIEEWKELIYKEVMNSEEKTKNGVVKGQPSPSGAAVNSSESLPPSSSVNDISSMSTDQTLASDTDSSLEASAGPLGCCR

A word on the inhibition: it is the drop in the measured response relative to a control, in per cent. Take `Cn1ncc(Cl)c1-c1cc(C(=O)N[C@H](CN)Cc2cccc(F)c2)sc1Cl` [GSK2110183]: the inhibition at 0.5 µM on JNK3(h) was -5%; on ZAP-70(h), 8%; against FAK(h) it was 1%; against ALK4(h) it was 3%. The inhibition at 10 µM against JNK3(h) was 6%; at ZAP-70(h), -2%; at FAK(h), 39%; at ALK4(h), 0%. Moreover, the “AKT substrate phosphorylation levels (GSK3β, PRAS40, FOXO, Caspase 9)” value in series [1] and in series [2] was “concentration-dependent effect” throughout. In addition, the “time for insulin to return to baseline” value in series [3] (100 mg/kg single oral dose) was no more than 8 h. The molecule further showed an insulin level in series [3] (100 mg/kg single oral dose, 4 h post dosing) of 105.6 ng/mL.
`Cn1ncc(Cl)c1-c1cc(C(=O)N[C@H](CN)Cc2ccc(F)c(F)c2)oc1Cl` [GSK2141795]: the inhibition at 0.5 µM on JNK3(h) (0.5 µM, read-out: % Inhibition) is -5%; at ZAP-70(h) (0.5 µM, read-out: % Inhibition), -23%; at FAK(h) (0.5 µM, read-out: % Inhibition) it was -3%; at ALK4(h) (0.5 µM, read-out: % Inhibition) it was -8%. For the same molecule, the inhibition at 10 µM was 3% at JNK3(h) (10 µM, read-out: % Inhibition); -24% on ZAP-70(h) (10 µM, read-out: % Inhibition); 5% at FAK(h) (10 µM, read-out: % Inhibition); -18% at ALK4(h) (10 µM, read-out: % Inhibition). Further, the “AKT substrate phosphorylation levels (GSK3β, PRAS40, FOXO, Caspase 9)” value in series [1] and in series [2] was “concentration-dependent effect” in each case. Further, the “time for insulin to return to normal” value in series [3] (single 30 mg/kg dose) is listed as no more than 8 h. The plasma insulin in series [3] (single 30 mg/kg dose, concomitant with glucose at 2 h) was determined as 188 ng/mL.
